Experimental data from US20240269304A1, “BCL-XL INHIBITOR ANTIBODY-DRUG CONJUGATES AND METHODS OF USE THEREOF” (Novartis AG, priority 2020, published 2024).
Read-outs that look alike come from different tables or passages of the source. One block for each compound: values may come before it.

How the values were obtained:
[1] = test system: H1650 human non-small cell lung carcinoma (NSCLC) model; assay: In vivo efficacy of EGFR1-Bcl-xL inhibitor ADCs with different linker payloads in combination with docetaxel, H1650 xenografts (Example 16); parameters: species or system female SCID mice; details: 7.5 mg/kg i.v. once + docetaxel 7.5 mg/kg iv 24 h later; for ΔTumor volume (mm^3) D21: mean±SEM; for Statistics 21 vs EGFR-L109A-P1 / Statistics D21 vs Vehicle gp / Statistics D46 vs EGFR-L109A-P1: one way ANOVA post hoc Tukey
Procedure: Tumor growth was monitored regularly post cell inoculation and animals were randomized into treatment groups (n=7) with a mean tumor volume of about 150 mm^3. […] The ADCs were administered intravenously (i.v.) once at the start of treatment at 7.5 mg/kg in combination with 7.5 mg/kg docetaxel (Zentiva: 1 ml/20 mg), which was administered i.v. once 24 h after the ADCs. Doses were adjusted to individual mouse body weights.
As a measure of efficacy, the %T/C value was calculated on day 21 according to:
(Δtumor volume treated/Δtumor volume control)*100 Tumor regression was calculated according to: […]
Where Δtumor volumes represent the mean tumor volume on the evaluation day minus the mean tumor volume at the start of the experiment.

[2] = ADC stability study: % aggregates by SEC after incubation at 37° C. for 168 h; format: physicochemical
Procedure: Size Exclusion Chromatography: Size exclusion chromatography (SEC) was performed for quality control of each ADCs by measuring monomer percentage of the conjugate. The analysis was performed on analytical column Superdex 200 Increase 5/150 GL (GE Healthcare, 28990945) in isocratic conditions 100% PBS pH7.4 (Sigma Life Science, P3813, 10PAK), flow 0.45 mI/min for 12 minutes. The % aggregate fraction of the conjugate sample was quantified based on the peak area absorbance at 280 nm. Its calculation was based on the ratio between the high molecular weight eluent at 280 nm divided by the sum of peak area absorbance at the same wavelength of the high molecular weight and monomeric eluents multiplied by 100.
Characterization of the exemplary ADCs is summarized in Table 13 (coupling, LC-MS method, OAR, aggregation status, ADO stability and yield). The average OAR values were determined using the above LC-MS methods and the percentage of aggregates was measured by size exclusion chromatography (SEC) during the quality control of the ADO and after the stability study (incubation at 37° C. for 168 h).

HCC1569 cells = assay: CellTiterGlo (CTG) cell viability, 120 h, HCC1569, single agent or with 10 nM Paclitaxel; format: cell-based
Procedure: HCC1569 cells were cultivated in RPMI supplemented with 10% heat inactivated fetal bovine serum, penicillin (100 IU/ml), streptomycin (100 μg/ml) and L-glutamine (2 mM). Cell lines were cultured at 37° C. in a humidified atmosphere containing 5% 002. […] Effects of ADCs on cell viability were assessed after 5 days of incubation at 37° C./5% CO2 by quantification of cellular ATP levels using CellTiterGlo at 75 μL reagent/well. All the conditions were tested in triplicates. Luminescence was quantified on a multipurpose plate reader. IC50s were calculated using standard four-parametric curve fitting.

H1650 cells = assay: CellTiterGlo (CTG) cell viability, 3D, 120 h, H1650 (Example 8); format: cell-based, human; details: Homo sapiens, NCI-H1650, H1650 3D
HPB-ALL (T-ALL) = assay: CellTiter-Glo viability 72 h, single agent or 1/1 combination with vincristine, ABT-199 or Compound A2, HPB-ALL (Example 9); format: cell-based; details: Homo sapiens, HPBALL, single agent or 1/1 combination as labelled
Procedure: (§1) Cell lines were cultured in the media described above at 37° C. in a humidified atmosphere containing 5% CO2. Cells were seeded in 96 well clear bottom plates (96 well clear-bottom, white, Corning reference 3903) and exposed to the payloads or ADCs at single agents or in 1/1 combinations with vincristine, ABT-199 or compound A2 for 72 h (serially diluted; 9 concentrations each, triplicates). Effects of payloads or ADCs on cell viability were assessed after 3 days of incubation at 37° C./5% CO2 by quantification of cellular ATP levels using CellTiter-Glo reagent (Promega Ref: G7571) at 75 μL reagent/well. All the conditions were tested in triplicates. Luminescence was quantified on a multipurpose plate reader. IC50s were calculated using standard four-parametric curve fitting. […] Each experiment was performed at least twice, with results being reproducible.

ALL-SILL (T-ALL) = assay: CellTiter-Glo viability 72 h, single agent or 1/1 combination, ALL-SIL (Example 9); format: cell-based; details: single agent or 1/1 combination as labelled
Procedure: Cell lines were cultured in the media described above at 37° C. in a humidified atmosphere containing 5% CO2. […] Effects of payloads or ADCs on cell viability were assessed after 3 days of incubation at 37° C./5% CO2 by quantification of cellular ATP levels using CellTiter-Glo reagent (Promega Ref: G7571) at 75 μL reagent/well. All the conditions were tested in triplicates. Luminescence was quantified on a multipurpose plate reader. IC50s were calculated using standard four-parametric curve fitting.

LOUCY (T-ALL) = assay: CellTiter-Glo viability 72 h, single agent or 1/1 combination, LOUCY (Example 9); format: cell-based; details: single agent or 1/1 combination as labelled
Procedure: as §1

Structure (SMILES): Cc1c(Nc2nc3ccccc3s2)nnc2c1CCCN2c1ccc(-c2cnn(CC34CC5(C)CC(C)(C3)CC(OCCN(CC[C@H](O)CO)C(=O)OCc3ccc(NC(=O)[C@H](CCCNC(N)=O)NC(=O)[C@@H](NC(=O)CCOCCN6C(=O)CC(C)C6=O)C(C)C)cc3CN(C)C(=O)CCOCCOCCOCCOCCOCCOCCOCCOCCOCCOCCOCCOCCOCCOCCOCCOCCOCCOCCOCCOCCOCCOCCOCCOCCOCCC(=O)O)(C5)C4)c2C)c(C(=O)O)n1 (mixture of isomers) [EGFR1-L11C-P19]
- Regression (%) ([1]; day 21): −35%
- ΔTumor volume (mm^3) D21 ([1]; day 21): −52 ± 21 mm^3
- Statistics 21 vs EGFR-L109A-P1 [1]: P < 0.05
- Statistics D21 vs Vehicle gp [1]: P < 0.05
- Statistics D46 vs EGFR-L109A-P1 [1]: P < 0.05

Structure (SMILES): CNCCOCCOCCNC(=O)OC[C@@H]1[C@@H]2CCc3nnn(CCOCCOCCOCC(=O)N[C@H](C(=O)N[C@@H](CCCNC(N)=O)C(=O)Nc4ccc(COC(=O)N(C)CC#Cc5ccc(OCCCc6sc(N(C)c7cc(C)c(Nc8nc9ccccc9s8)nn7)nc6C(=O)O)c(F)c5)cc4)C(C)C)c3CC[C@@H]21 [Ab T - L23C-P7]
- Stab w1 +37° C. % Agg (by SEC) [2]: 4%
- IC50 (HCC1569 cells; read-out: HCC1569 CTG 120 h IC50 nM + Paclitaxel 10 nM Mean N1 and N2, in the presence of 10 nM Paclitaxel, mean): 0.213 nM
- IC50 (HCC1569 cells; read-out: HCC1569 CTG 120 h IC50 nM + Paclitaxel 10 nM N1, in the presence of 10 nM Paclitaxel, N1): 0.287 nM
- IC50 (HCC1569 cells; read-out: HCC1569 CTG 120 h IC50 nM + Paclitaxel 10 nM N2, in the presence of 10 nM Paclitaxel, N2): 0.139 nM
- IC50 (HCC1569 cells; read-out: HCC1569 CTG 120 h IC50 nM Mean N1 and N2, single agent, mean): > 300 nM
- IC50 (HCC1569 cells; read-out: HCC1569 CTG 120 h IC50 nM N1, single agent, N1): > 300 nM
- IC50 (HCC1569 cells; read-out: HCC1569 CTG 120 h IC50 nM N2, single agent, N2): > 300 nM

Structure (SMILES): Cc1c(Nc2nc3ccccc3s2)nnc2c1CCCN2c1ccc(-c2cnn(CC34CC5(C)CC(C)(C3)CC(OCC[N+]3(Cc6ccc(NC(=O)[C@H](CCCNC(N)=O)NC(=O)[C@@H](NC(=O)CCOCCN7C(=O)CC(C)C7=O)C(C)C)cc6CN(C)C(=O)CCOCCOCCOCCOCCOCCOCCOCCOCCOCCOCCOCCOCCOCCOCCOCCOCCOCCOCCOCCOCCOCCOCCOCCOCCOCCC(=O)O)CCCC3)(C5)C4)c2C)c(C(=O)O)n1 (stereo partly drawn) [EGFR1-L11A-P21]
- Regression (%) ([1]; day 21): −8%
- ΔTumor volume (mm^3) D21 ([1]; day 21): −16 ± 20 mm^3
- Statistics D21 vs Vehicle gp [1]: P < 0.05
- Statistics D46 vs EGFR-L109A-P1 [1]: P < 0.05

Structure (SMILES): Cc1c(Nc2nc3ccccc3s2)nnc2c1CCCN2c1ccc(-c2cnn(CC34CC5(C)CC(C)(C3)CC(OCC[N+](C)(C)Cc3ccc(NC(=O)[C@H](CCCNC(N)=O)NC(=O)[C@@H](NC(=O)CCOCCN6C(=O)CC(C)C6=O)C(C)C)cc3CN(C)C(=O)CCOCCOCCOCCOCCOCCOCCOCCOCCOCCOCCOCCOCCOCCOCCOCCOCCOCCOCCOCCOCCOCCOCCOCCOCCOCCC(=O)O)(C5)C4)c2C)c(C(=O)O)n1 (stereo partly drawn) [EGFR1-L11A-P27]
- T/C (%) D21 ([1]; day 21): 3%
- ΔTumor volume (mm^3) D21 ([1]; day 21): 14 ± 18 mm^3
- Statistics D21 vs Vehicle gp [1]: P < 0.05

Structure (SMILES): Cc1c(Nc2nc3ccccc3s2)nnc2c1CCCN2c1ccc(-c2cnn(CC34CC5(C)CC(C)(C3)CC(OCCN(CCCO)C(=O)OCc3ccc(NC(=O)[C@H](CCCNC(N)=O)NC(=O)[C@@H](NC(=O)CCOCCN6C(=O)CC(C)C6=O)C(C)C)cc3CN(C)C(=O)CCOCCOCCOCCOCCOCCOCCOCCOCCOCCOCCOCCOCCOCCOCCOCCOCCOCCOCCOCCOCCOCCOCCOCCOCCOCCC(=O)O)(C5)C4)c2C)c(C(=O)O)n1 (stereo partly drawn) [EGFR1-L11C-P25]
- Regression (%) ([1]; day 21): −50%
- ΔTumor volume (mm^3) D21 ([1]; day 21): −76 ± 17 mm^3
- Statistics 21 vs EGFR-L109A-P1 [1]: P < 0.05
- Statistics D21 vs Vehicle gp [1]: P < 0.05
- Statistics D46 vs EGFR-L109A-P1 [1]: P < 0.05

- IC50 (H1650 cells; experiment n1, read-out: H1650 3D CTG IC50 n1): 7.5 nM
- IC50 (H1650 cells; experiment n2, read-out: H1650 3D CTG IC50 n2): 4.7 nM
- IC50 (H1650 cells; mean of n1 and n2, read-out: H1650 3D CTG IC50 Mean of n1 and n2): 6.1 nM
- IC50 (HCC1569 cells; Homo sapiens, HCC1569, read-out: HCC1569 CTG 120 h IC50 nM + Paclitaxel 10 nM Mean N1 and N2, in the presence of 10 nM Paclitaxel, mean): 0.436 nM
- IC50 (HCC1569 cells; Homo sapiens, HCC1569, read-out: HCC1569 CTG 120 h IC50 nM + Paclitaxel 10 nM N1, in the presence of 10 nM Paclitaxel, N1): 0.443 nM
- IC50 (HCC1569 cells; Homo sapiens, HCC1569, read-out: HCC1569 CTG 120 h IC50 nM + Paclitaxel 10 nM N2, in the presence of 10 nM Paclitaxel, N2): 0.429 nM
- IC50 (HCC1569 cells; Homo sapiens, HCC1569, read-out: HCC1569 CTG 120 h IC50 nM Mean N1 and N2, single agent, mean): 33 nM
- IC50 (HCC1569 cells; Homo sapiens, HCC1569, read-out: HCC1569 CTG 120 h IC50 nM N1, single agent, N1): 40.3 nM
- IC50 (HCC1569 cells; Homo sapiens, HCC1569, read-out: HCC1569 CTG 120 h IC50 nM N2, single agent, N2): 25.6 nM
Structure (SMILES): CNCC#Cc1ccc(OCCCc2sc(N(C)c3cc(C)c(Nc4nc5ccccc5s4)nn3)nc2C(=O)O)c(F)c1 [P7, 2-[[6-(1,3-benzothiazol-2-ylamino)-5-methyl-pyridazin-3-yl]-methyl-amino]-5-[3-[2-fluoro-4-[3-(methylamino)prop-1-ynyl]phenoxy]propyl]thiazole-4-carboxylic acid]

Structure (SMILES): CC[C@]1(O)C[C@H]2CN(CCc3c([nH]c4ccccc34)[C@@](C(=O)OC)(c3cc4c(cc3OC)N(C=O)[C@H]3[C@@](O)(C(=O)OC)[C@H](OC(C)=O)[C@]5(CC)C=CCN6CC[C@]43[C@@H]65)C2)C1 [Vincristine, vincristine]
- IC50 (HPB-ALL (T-ALL); mean, read-out: HPB-ALL (T-ALL) IC50 mean): 0.705 nM
- IC50 (HPB-ALL (T-ALL); n1, read-out: HPB-ALL (T-ALL) IC50 n1): 0.68 nM
- IC50 (HPB-ALL (T-ALL); n2, read-out: HPB-ALL (T-ALL) IC50 n2): 0.73 nM
- IC50 (ALL-SILL (T-ALL); mean, read-out: ALL-SILL (T-ALL) IC50 mean): 0.089 nM
- IC50 (ALL-SILL (T-ALL); n1, read-out: ALL-SILL (T-ALL) IC50 n1): 0.094 nM
- IC50 (ALL-SILL (T-ALL); n2, read-out: ALL-SILL (T-ALL) IC50 n2): 0.083 nM
- IC50 (LOUCY (T-ALL); mean, read-out: LOUCY (T-ALL) IC50 mean): 0.73 nM
- IC50 (LOUCY (T-ALL); n1, read-out: LOUCY (T-ALL) IC50 n1): 0.96 nM
- IC50 (LOUCY (T-ALL); n2, read-out: LOUCY (T-ALL) IC50 n2): 0.5 nM
